Laboratory results reported in patent US20090131481A1, “Transcription Factor Modulating Compounds and Methods of Use Thereof” (Paratek Pharmaceuticals, Inc., published 2009).
Where two headings read alike, the source gives them in different places.

Assays:
[1] = tested on: P. aeruginosa; experiment: P. aeruginosa cytotoxicity whole cell assay (J774 cells, LDH release); details: relative to vehicle treated cells infected with wild type P. aeruginosa
[2] = target: LcrF (VirF) (Yersinia pestis, UniProt P28808); experiment: biochemical; assay type: binding, Y. pseudotuberculosis
Chain of LcrF (VirF) (P28808 whole entry, looked up): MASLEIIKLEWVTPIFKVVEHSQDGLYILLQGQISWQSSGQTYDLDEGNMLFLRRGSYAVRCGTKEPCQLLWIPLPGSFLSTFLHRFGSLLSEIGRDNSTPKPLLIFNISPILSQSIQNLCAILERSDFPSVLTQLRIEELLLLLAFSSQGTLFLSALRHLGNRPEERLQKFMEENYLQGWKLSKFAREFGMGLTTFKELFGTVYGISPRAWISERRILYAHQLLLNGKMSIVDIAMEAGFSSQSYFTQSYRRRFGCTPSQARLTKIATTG

[3] = tested on: Y. pseudotuberculosis; experiment: microbe, parasite or virus in culture; details: Yersinia pseudotuberculosis, J774, read-out: % Cytotoxicity
[4] = target: T1, ExsA (Pseudomonas aeruginosa, UniProt P26993); experiment: Chemiluminescence-based ExsA-DNA binding assay; design: species or system P. aeruginosa; details: Table 7, cell-free system; read-out: ExsA EC50
T1 construct: made in house
T1 sequence (P26993 1-278): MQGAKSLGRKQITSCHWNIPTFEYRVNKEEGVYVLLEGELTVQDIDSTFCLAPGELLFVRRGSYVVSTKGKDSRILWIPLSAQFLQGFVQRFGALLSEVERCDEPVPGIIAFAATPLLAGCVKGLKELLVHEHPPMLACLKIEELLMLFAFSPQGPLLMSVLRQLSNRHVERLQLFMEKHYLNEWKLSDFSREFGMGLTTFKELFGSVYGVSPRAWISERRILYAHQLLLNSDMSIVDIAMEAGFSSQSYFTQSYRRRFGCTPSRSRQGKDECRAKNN

[5] = EC50 for inhibition of LcrF(VirF)-DNA binding

SMILES	Cytotoxicity at 50 μg/mL Pseudomonas [1]	EC50 [2, 5] [µM]	activity at 50 µg/mL [3] [%]	EC50 ([2]; read-out: EC50 for inhibition of LcrF(VirF)-DNA binding) [µM]	EC50 [4] [µM]
CC(=O)c1ccc(C(=O)Nc2ccc(-c3nc4ccc(C#N)cc4n3O)cc2)cc1 [AA]	** (reduced P. aeruginosa cytotoxicity below 75% of untreated, wild type levels at 50 mg/mL)	> 25	< 75		
COc1ccc(/C=C/C(=O)Nc2ccc(-c3nc4ccc([N+](=O)[O-])cc4n3O)cc2)c(OC)c1 [AK]	* (reduced P. aeruginosa cytotoxicity to 99-75% of untreated, wild type levels at 50 mg/mL)	> 25	75 to 99		
O=C(/C=C/c1ccc(-n2ccnc2)cc1)Nc1ccc(-c2nc3ccc([N+](=O)[O-])cc3n2O)cc1 [AM, (E)-N-[4-(1-Hydroxy-6-nitro-1H-benzoimidazol-2-yl)-phenyl]-3-(4-imidazol-1-yl-phenyl)-acrylamide]	** (reduced P. aeruginosa cytotoxicity below 75% of untreated, wild type levels at 50 mg/mL)		75 to 99	> 25	
N#Cc1ccc2nc(-c3ccc(NC(=O)/C=C/c4ccccc4)cc3)n(O)c2c1 [CL]	* (reduced P. aeruginosa cytotoxicity to 99-75% of untreated, wild type levels at 50 mg/mL)	10 to 25	< 75		10 to 25
Cc1ccc(/C=C/C(=O)Nc2ccc(-c3nc4ccc(C#N)cc4n3O)cc2)cc1 [CP]	* (reduced P. aeruginosa cytotoxicity to 99-75% of untreated, wild type levels at 50 mg/mL)	10 to 25	75 to 99		
O=C(Nc1ccc(-c2nc3ccc([N+](=O)[O-])cc3n2O)cc1)/C(=C/c1ccccc1)c1ccccc1 [CQ]	** (reduced P. aeruginosa cytotoxicity below 75% of untreated, wild type levels at 50 mg/mL)		< 75		10 to 25
O=C(Nc1ccc(-c2nc3ccc([N+](=O)[O-])cc3n2O)cc1)/C(F)=C/c1ccccc1 [CR]	** (reduced P. aeruginosa cytotoxicity below 75% of untreated, wild type levels at 50 mg/mL)	10 to 25	< 75		
N#Cc1ccc2nc(-c3ccc(NC(=O)c4ccc(F)cc4)cc3)n(O)c2c1 [CV]	* (reduced P. aeruginosa cytotoxicity to 99-75% of untreated, wild type levels at 50 mg/mL)	> 25	< 75		10 to 25
O=C(C/C=C/c1ccccc1)Nc1ccc(-c2nc3ccc([N+](=O)[O-])cc3n2O)cc1 [CY]	* (reduced P. aeruginosa cytotoxicity to 99-75% of untreated, wild type levels at 50 mg/mL)	> 25	< 75		
O=C(Nc1ccc(-c2nc3ccc([N+](=O)[O-])cc3n2O)cc1)c1ccc(F)c(F)c1 [DA]	* (reduced P. aeruginosa cytotoxicity to 99-75% of untreated, wild type levels at 50 mg/mL)	10 to 25	< 75		10 to 25
O=C(Nc1ccc(-c2nc3ccc([N+](=O)[O-])cc3n2O)cc1)c1ccc(-c2cncnc2)cc1 [DC]	* (reduced P. aeruginosa cytotoxicity to 99-75% of untreated, wild type levels at 50 mg/mL)	> 25	75 to 99		10 to 25
Cc1cc(C(=O)Nc2ccc(-c3nc4ccc([N+](=O)[O-])cc4n3O)cc2)ccc1F [DD]	* (reduced P. aeruginosa cytotoxicity to 99-75% of untreated, wild type levels at 50 mg/mL)	10 to 25	< 75		10 to 25
O=C(Nc1ccc(-c2nc3ncc([N+](=O)[O-])cc3n2O)cc1)c1ccc(F)cc1 [DI]	* (reduced P. aeruginosa cytotoxicity to 99-75% of untreated, wild type levels at 50 mg/mL)	10 to 25	< 75		10 to 25
CC(=O)c1ccc(C(=O)Nc2ccc(-c3nc4ncc([N+](=O)[O-])cc4n3O)cc2)cc1 [DJ]	* (reduced P. aeruginosa cytotoxicity to 99-75% of untreated, wild type levels at 50 mg/mL)	10 to 25	< 75		
CCc1cc(-c2nc3ccc([N+](=O)[O-])cc3n2O)ccc1NC(=O)c1ccc(C(C)=O)cc1 [DL]	* (reduced P. aeruginosa cytotoxicity to 99-75% of untreated, wild type levels at 50 mg/mL)	10 to 25	< 75		10 to 25
COc1cc(C(=O)Nc2ccc(-c3nc4ccc([N+](=O)[O-])cc4n3O)cc2)ccc1F [DM]	* (reduced P. aeruginosa cytotoxicity to 99-75% of untreated, wild type levels at 50 mg/mL)	10 to 25	< 75		10 to 25
O=C(Nc1ccc(-c2nc3ccc([N+](=O)[O-])cc3n2O)cc1)c1ccccc1O [DN]	* (reduced P. aeruginosa cytotoxicity to 99-75% of untreated, wild type levels at 50 mg/mL)	10 to 25	< 75		10 to 25
O=C(/C=C/c1ccc(F)cc1)Nc1ccc(-c2nc3ccc([N+](=O)[O-])cc3n2O)nc1 [DZ]	* (reduced P. aeruginosa cytotoxicity to 99-75% of untreated, wild type levels at 50 mg/mL)	10 to 25	< 75		
O=C(/C=C/c1ccc(F)cc1)Nc1ccc(-c2nc3ccc([N+](=O)[O-])cc3n2O)c(F)c1 [EI]	* (reduced P. aeruginosa cytotoxicity to 99-75% of untreated, wild type levels at 50 mg/mL)		75 to 99		10 to 25
CC(=O)c1ccc(C(=O)Nc2ccc(-c3nc4ccc([N+](=O)[O-])cc4n3O)cc2F)cc1 [EM, 4-Acetyl-N-[2-fluoro-4-(1-hydroxy-6-nitro-H-benzoimidazol-2-yl)-phenyl]-benzamide]	* (reduced P. aeruginosa cytotoxicity to 99-75% of untreated, wild type levels at 50 mg/mL)	10 to 25	< 75		
O=C(/C=C/c1ccc(-n2cncn2)cc1)Nc1ccc(-c2nc3ccc([N+](=O)[O-])cc3n2O)cc1 [EU, (E)-N-[4-(1-Hydroxy-6-nitro-1H-benzoimidazol-2-yl)-phenyl]-3-(4-[1,2,4]triazol-1-yl-phenyl)-acrylamide]	** (reduced P. aeruginosa cytotoxicity below 75% of untreated, wild type levels at 50 mg/mL)	> 25	75 to 99		
CCOc1cc2nc(-c3ccc(NC(=O)/C=C/c4ccc(F)cc4)cc3)n(O)c2cc1[N+](=O)[O-] [EV, (E)-N-[4-(5-Ethoxy-1-hydroxy-6-nitro-1H-benzoimidazol-2-yl)-phenyl]-3-(4-fluoro-phenyl)-acrylamide]	** (reduced P. aeruginosa cytotoxicity below 75% of untreated, wild type levels at 50 mg/mL)	10 to 25	75 to 99		
Cc1cc2nc(-c3ccc(NC(=O)c4ccc(-c5cnco5)cc4)cc3)n(O)c2cc1[N+](=O)[O-] [EX, N-[4-(1-Hydroxy-5-methyl-6-nitro-1H-benzoimidazol-2-yl)-phenyl]-4-oxazol-5-v-benzamide]	** (reduced P. aeruginosa cytotoxicity below 75% of untreated, wild type levels at 50 mg/mL)	> 25	75 to 99		
CN(C)C(=O)c1ccc(C(=O)Nc2ccc(-c3nc4ccc([N+](=O)[O-])cc4n3O)cc2)cc1 [FB]	* (reduced P. aeruginosa cytotoxicity to 99-75% of untreated, wild type levels at 50 mg/mL)		< 75		> 25
